Assay results reported in patent US20230119013A1, “N-CYANOPYRROLIDINES WITH ACTIVITY AS USP30 INHIBITORS” (MISSION THERAPEUTICS LIMITED, priority 2020, published 2023).
Where two headings read alike, the source gives them in different places.

What was measured:
[1] = system: T1, UCHL1, USP1, USP2, USP6, USP9x, USP10, USP15, USP16, USP20, USP21, USP22, USP25, USP28, USP35, USP36, USP46/UAF1; test: DUB biochemical IC50 assays (off-target panel); settings: each of UCHL1, USP1, USP2, USP6, USP9x, USP10, USP15, USP16, USP20, USP21, USP22, USP25, USP28, USP35, USP36, USP46/UAF1; read-out: IC50 (μM) against DUB panel
T1 construct: other: each of UCHL1, USP1, USP2, USP6, USP9x, USP10, USP15, USP16, USP20, USP21, USP22, U

TK6 cells = test: In vitro micronucleus assay in TK6 cells; type: cell-based; settings: 27 hours recovery
Protocol: The micronucleus assay may be used to determine if a compound is genotoxic by evaluating the presence of micronuclei. Micronuclei may contain chromosome fragments produced from DNA breakage (clastogens) or whole chromosomes produced by disruption of the mitotic apparatus (aneugens).
Example 1 was assessed in the bacterial reverse mutation assay (Ames) and in vitro micronucleus assay. All in vitro tests were conducted with and without exogenous metabolic activation using concentrations up to those limited by cytotoxicity or insolubility.
Induction of chromosome damage was assessed using the in vitro micronucleus assay in TK6 cells. Example 1 was negative for induction of micronuclei when incubated for 3 hours in the presence of exogenous metabolic activation followed by 27 hours recovery, and also when incubated for 27 hours in the absence of exogenous metabolic activation followed by 27 hours recovery.

USP30 [2] = target: T2, USP30 (Homo sapiens, UniProt Q70CQ3); test: USP30 biochemical IC50 assay (fluorescence polarisation); settings: for fold more potent against USP30 than Reference Example A / fold more potent against USP30 than Reference Example B / fold more potent against USP30 than Reference Example C / fold more potent against USP30 than Reference Example D: biochemical assay; for IC50: read-out: USP30 IC50
T2 construct: purchased Boston Biochem E582
T2 sequence (Q70CQ3 57-517 limits assumed): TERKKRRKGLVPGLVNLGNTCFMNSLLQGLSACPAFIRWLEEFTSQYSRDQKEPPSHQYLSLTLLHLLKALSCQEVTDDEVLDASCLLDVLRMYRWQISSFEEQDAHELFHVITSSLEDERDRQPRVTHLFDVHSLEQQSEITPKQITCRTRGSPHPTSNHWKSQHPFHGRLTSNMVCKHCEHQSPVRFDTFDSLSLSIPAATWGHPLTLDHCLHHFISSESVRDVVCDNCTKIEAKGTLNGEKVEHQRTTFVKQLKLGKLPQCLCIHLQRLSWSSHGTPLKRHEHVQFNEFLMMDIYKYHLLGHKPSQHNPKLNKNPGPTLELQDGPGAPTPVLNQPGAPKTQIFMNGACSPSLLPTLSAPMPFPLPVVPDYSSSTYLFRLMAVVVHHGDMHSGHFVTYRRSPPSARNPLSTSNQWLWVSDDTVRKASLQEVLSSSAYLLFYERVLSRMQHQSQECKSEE
Protocol: Dilution plates were prepared at 21 times the final concentration (2100 μM for a final concentration of 100 μM) in 50% DMSO in a 96-well polypropylene V-bottom plate (Greiner #651201). A typical 8-point dilution series would be 100, 30, 10, 3, 1, 0.3, 0.1, 0.03 μM final. Reactions were performed in duplicate in black 384 well plates (small volume, Greiner 784076) in a final reaction volume of 21 μl. Either 1 μl of 50% DMSO or diluted compound was added to the plate. USP30 (Boston Biochem #E582) was diluted in reaction buffer (40 mM Tris, pH 7.5, 0.005% Tween 20, 0.5 mg/ml BSA, 5 mM beta-mercaptoethanol) to achieve a final assay concentration of 4 nM, and 10 μl of diluted USP30 was added to the compound. Enzyme and compound were incubated for 30 min at room temp. Reactions were initiated by the addition of 50 nM of TAMRA labelled peptide linked to ubiquitin via an iso-peptide bond as fluorescence polarisation substrate. Reactions were read immediately after addition of substrate and following a 2-hour incubation at room temperature. Readings were performed on a Pherastar Plus (BMG Labtech). λ Excitation 540 nm; Emission 590 nm.

USP30 [3] = target: T3, USP30 (Mus musculus, UniProt Q3UN04); test: USP30 brain tissue target engagement assay (TE ex vivo); type: in vivo; settings: 2 mg/kg iv, n = 2 avg
T3 construct: in either brain or kidney tissue samples from compound-dosed animals; from tissue; b325 calls 'TE ex vivo' a kidney tissue assay
T3 sequence (Q3UN04 whole entry): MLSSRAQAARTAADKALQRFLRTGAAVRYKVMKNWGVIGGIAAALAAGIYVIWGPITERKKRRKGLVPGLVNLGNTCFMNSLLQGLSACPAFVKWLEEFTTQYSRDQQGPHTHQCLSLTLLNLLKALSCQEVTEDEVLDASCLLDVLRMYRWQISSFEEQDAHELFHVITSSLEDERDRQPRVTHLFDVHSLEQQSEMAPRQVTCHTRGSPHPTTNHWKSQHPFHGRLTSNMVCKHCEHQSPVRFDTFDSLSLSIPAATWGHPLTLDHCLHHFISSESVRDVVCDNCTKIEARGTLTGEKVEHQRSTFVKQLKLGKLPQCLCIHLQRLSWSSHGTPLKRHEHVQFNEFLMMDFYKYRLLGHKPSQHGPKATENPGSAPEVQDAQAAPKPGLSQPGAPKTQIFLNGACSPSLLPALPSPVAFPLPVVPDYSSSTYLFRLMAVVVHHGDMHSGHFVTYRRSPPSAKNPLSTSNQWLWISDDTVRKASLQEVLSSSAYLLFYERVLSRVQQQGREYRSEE
Protocol: 50 to 100 mg of tissue was homogenised in 3× volume of lysis buffer (50 mM Tris-base, pH 7.5, 50 mM NaCl, 1% NP-40/Igepal CA-630, 2 mM MgCl2, 10% Glycerol, 5 mM beta-mercaptoethanol, cOmplete mini tablets EDTA free (Roche), PhosStop tablets (Roche)) using the Retch Mixer Mill (MM400). The lysates were cleared and protein quantified using the Bradford Protein assay (Pierce). Lysate containing 60 μg protein was incubated with a final conc of 24 μM of HA-Ahx-Ahx-Ub-VME probe for 60 mins at room temperature. The reaction was stopped by addition of 5×SDS sample loading buffer and proteins separated by SDS-PAGE and western blotting. USP30 was detected using an anti-USP30 Sheep S746D antibody (MRC PPU Reagents and Services) and a rabbit anti sheep secondary IgG (H+L) horseradish peroxidase conjugated (Thermo #31480) and visualised using ECL reagent (GE #RPN2109) on a GE LAS4000 imager. Target engagement was measured by quantitation of the bands corresponding to USP30 and USP30 bound to the Ub-VME probe and expression of this proportion compared to vehicle treated control.
MDR1-MDCK (Madin-Darby Canine Kidney cell monolayer) (in vitro) flux assay. Cell TE WB: USP30 endogenous cellular target engagement western blot (WB) assay. Assays the activity of compounds against USP30 in cells using an irreversible activity probe to monitor USP30 activity. […]

5-HT2b = target: T4, 5-HT2b (Homo sapiens, UniProt P41595); test: Eurofins CEREP SafetyScreen44 panel, 5-HT2b; type: binding
T4 construct: purchased Eurofins CEREP (contract screening panel) SafetyScreen44
T4 sequence (P41595 whole entry): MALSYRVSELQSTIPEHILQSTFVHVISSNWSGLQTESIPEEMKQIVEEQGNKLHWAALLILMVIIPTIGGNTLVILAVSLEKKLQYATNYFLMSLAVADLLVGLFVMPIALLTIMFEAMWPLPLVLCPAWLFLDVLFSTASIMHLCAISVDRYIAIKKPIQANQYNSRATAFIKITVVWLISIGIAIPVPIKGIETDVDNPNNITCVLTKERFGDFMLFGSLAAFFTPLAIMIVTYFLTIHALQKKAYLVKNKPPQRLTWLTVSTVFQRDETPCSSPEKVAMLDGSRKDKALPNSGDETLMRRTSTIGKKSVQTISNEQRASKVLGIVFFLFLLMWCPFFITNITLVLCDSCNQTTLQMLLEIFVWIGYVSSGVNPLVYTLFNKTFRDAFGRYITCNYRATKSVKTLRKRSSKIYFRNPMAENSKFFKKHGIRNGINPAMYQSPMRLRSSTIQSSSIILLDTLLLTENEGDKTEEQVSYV
From the text: Example 2 was subject to pharmacological profiling in the Eurofins CEREP SafetyScreen44 panel.

[4] = system: T5, UCHL1, USP1, USP2, USP6, USP9x, USP10, USP15, USP16, USP20, USP21, USP22, USP25, USP28, USP35, USP36, USP46/UAF1; test: DUB biochemical IC50 assays (off-target panel); settings: each of UCHL1, USP1, USP9x, USP10, USP15, USP16, USP20, USP21, USP22, USP25, USP28, USP35, USP36, USP46/UAF1; read-out: IC50 (μM) against DUB panel
T5 construct: other: each of UCHL1, USP1, USP9x, USP10, USP15, USP16, USP20, USP21, USP22, USP25, USP28

Row | SMILES | IC50 [1] | induction of micronuclei (TK6 cells; 3 hours in the presence of exogenous metabolic activation) | induction of micronuclei (TK6 cells; 27 hours in the absence of exogenous metabolic activation) | fold more potent against USP30 than Reference Example A (USP30 [2]) | fold more potent against USP30 than Reference Example B (USP30 [2]) | fold more potent against USP30 than Reference Example C (USP30 [2]) | fold more potent against USP30 than Reference Example D (USP30 [2]) | IC50 (USP30 [2]) | TE ex vivo Mouse brain (%) at 15 min (USP30 [3]; 15 min) | TE ex vivo Mouse brain (%) at 60 min (USP30 [3]; 60 min) | inhibition at 10 µM (5-HT2b) | IC50 [4]
1 | COC[C@@H]1C[C@@H](NC(=O)c2ncc(-c3cccc(OC(F)(F)F)c3)o2)CN1C#N [Example 1, N-((3R,5S)-1-Cyano-5-(methoxymethyl)pyrrolidin-3-yl)-5-(3-(trifluoromethoxy)phenyl)oxazole-2-carboxamide] | ≥ 4.4 µM | negative | negative | 14 fold | 34 fold | 62 fold | 880 fold | 5 nM |  |  |  | 
2 | C[C@@H]1C[C@@H](NC(=O)c2ncc(-c3cccc(OC(F)(F)F)c3)o2)CN1C#N [Example 2, N-((3R,5R)-1-Cyano-5-methylpyrrolidin-3-yl)-5-(3-(trifluoromethoxy)phenyl)oxazole-2-carboxamide] |  |  |  | 14 fold | 34 fold | 62 fold | 880 fold | 5 nM | 68% | 25% | 32% | ≥ 4.7 µM
